Assay results: patent US20200048267A1, “OGA INHIBITOR COMPOUNDS” (Janssen Pharmaceutica NV, priority 2017, published 2020)
Structures can show the parent of a compound that is named as a salt.

Legend:
[1] = molecular target: T1, recombinant human Meningioma Expressed Antigen 5 (MGEA5), also referred to as O-GlcNAcase (OGA) (Homo sapiens, UniProt O60502); assay: OGA biochemical assay (inhibition of FM-GlcNAc hydrolysis, fluorescence); conditions: for Emax: read-out: ENZYMATIC Emax (%); for IC50: read-out: ENZYMATIC hOGA, pIC50 (converted)
T1 construct: Full length OGA enzyme was purchased at OriGene (cat # TP322411); purchased OriGene TP322411
T1 sequence (O60502 1-916): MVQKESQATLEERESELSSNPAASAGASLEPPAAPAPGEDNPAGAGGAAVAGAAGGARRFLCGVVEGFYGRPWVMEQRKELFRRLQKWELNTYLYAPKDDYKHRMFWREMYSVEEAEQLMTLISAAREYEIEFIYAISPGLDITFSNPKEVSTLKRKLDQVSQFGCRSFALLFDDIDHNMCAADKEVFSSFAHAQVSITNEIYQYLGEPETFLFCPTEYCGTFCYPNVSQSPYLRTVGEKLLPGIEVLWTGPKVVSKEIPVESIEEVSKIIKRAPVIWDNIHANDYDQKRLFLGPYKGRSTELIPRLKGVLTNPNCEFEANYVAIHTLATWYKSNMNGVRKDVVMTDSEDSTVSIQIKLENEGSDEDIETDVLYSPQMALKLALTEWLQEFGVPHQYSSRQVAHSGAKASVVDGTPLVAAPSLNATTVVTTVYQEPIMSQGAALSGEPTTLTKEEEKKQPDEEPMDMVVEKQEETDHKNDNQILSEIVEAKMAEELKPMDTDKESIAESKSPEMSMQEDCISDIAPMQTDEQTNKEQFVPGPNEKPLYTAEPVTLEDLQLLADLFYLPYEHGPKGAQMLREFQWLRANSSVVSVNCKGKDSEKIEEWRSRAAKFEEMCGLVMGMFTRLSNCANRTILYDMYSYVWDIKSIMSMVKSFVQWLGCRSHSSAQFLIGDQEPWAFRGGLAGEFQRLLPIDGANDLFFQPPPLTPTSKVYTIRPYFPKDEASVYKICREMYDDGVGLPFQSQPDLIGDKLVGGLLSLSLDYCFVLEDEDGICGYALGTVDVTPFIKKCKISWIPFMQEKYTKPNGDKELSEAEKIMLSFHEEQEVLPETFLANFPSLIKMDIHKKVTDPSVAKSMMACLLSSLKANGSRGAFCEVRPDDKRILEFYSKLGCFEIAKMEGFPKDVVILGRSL
From the text: The assay is based on the inhibition of the hydrolysis of fluorescein mono-β-D-N-Acetyl-Glucosamine (FM-GlcNAc) (Mariappa et al. 2015, Biochem J 470:255) by the recombinant human Meningioma Expressed Antigen 5 (MGEA5), also referred to as O-GlcNAcase (OGA). The hydrolysis FM-GlcNAc (Marker Gene technologies, cat # M1485) results in the formation of B-D-N-glucosamineacetate and fluorescein. The fluorescence of the latter can be measured at excitation wavelength 485 nm and emission wavelength 538 nm. An increase in enzyme activity results in an increase in fluorescence signal. Full length OGA enzyme was purchased at OriGene (cat # TP322411). The enzyme was stored in 25 mM Tris.HCl, pH 7.3, 100 mM glycine, 10% glycerol at −20° C. Thiamet G and GlcNAcStatin were tested as reference compounds (Yuzwa et al. 2008 Nature Chemical Biology 4:483; Yuzwa et al. 2012 Nature Chemical Biology 8:393). The assay was performed in 200 mM Citrate/phosphate buffer supplemented with 0.005% Tween-20. 35.6 g Na2HPO4 2 H2O (Sigma, # C0759) were dissolved in 1 L water to obtain a 200 mM solution. 19.2 g citric acid (Merck, # 1.06580) was dissolved in 1 L water to obtain a 100 mM solution. pH of the sodium phosphate solution was adjusted with the citric acid solution to 7.2. The buffer to stop the reaction consists of a 500 mM Carbonate buffer, pH 11.0. 734 mg FM-GlcNAc were dissolved in 5.48 mL DMSO to obtain a 250 mM solution and was stored at −20° C. OGA was used at 2 nM concentration and FM-GlcNAc at a 100 uM final concentration. Dilutions were prepared in assay buffer.
50 nl of a compound dissolved in DMSO was dispensed on Black Proxiplate™ 384 Plus Assay plates (Perkin Elmer, #6008269) and 3 μl fl-OGA enzyme mix added subsequently. Plates were pre-incubated for 60 min at room temperature and then 2 μl FM-GlcNAc substrate mix added. […] Plates were briefly centrifuged for 1 min at 1000rpm and incubate at room temperature for 6 h. To stop the reaction 5 μl STOP buffer were added and plates centrifuge again 1 min at 1000 rpm.
Fluorescence was quantified in the Thermo Scientific Fluoroskan Ascent or the PerkinElmer EnVision with excitation wavelength 485 nm and emission wavelength 538 nm.
For analysis a best-fit curve is fitted by a minimum sum of squares method. From this an IC50 value and Hill coefficient was obtained. High control (no inhibitor) and low control (saturating concentrations of standard inhibitor) were used to define the minimum and maximum values.

OGA = molecular target: T2, OGA (Homo sapiens, UniProt O60502); assay: OGA cellular assay (ICC detection of O-GlcNAcylated proteins in HEK293 cells inducible for P301L mutant human Tau); type: cell-based; conditions: 6 hours incubation; for EC50: read-out: CELLULAR hOGA, pEC50 (converted)
T2 construct: HEK293 cells inducible for P301L mutant human Tau (isoform 2N4R) were established at Janssen; endogenous in cells; host or cells: HEK293 cells inducible for P301L mutant human Tau (2N4R)
T2 sequence (O60502 1-916): T1 sequence (O60502 1-916)
Description: HEK293 cells inducible for P301L mutant human Tau (isoform 2N4R) were established at Janssen. Thiamet-G was used for both plate validation (high control) and as reference compound (reference EC50 assay validation). OGA inhibition is evaluated through the immunocytochemical (ICC) detection of O-GlcNAcylated proteins by the use of a monoclonal antibody (CTD110.6; Cell Signaling, #9875) detecting O-GlcNAcylated residues as previously described (Dorfmueller et al. 2010 Chemistry & biology, 17:1250). Inhibition of OGA will result in an increase of O-GlcNAcylated protein levels resulting in an increased signal in the experiment. Cell nuclei are stained with Hoechst to give a cell culture quality control and a rough estimate of immediate compounds toxicity, if any. ICC pictures are imaged with a Perkin Elmer Opera Phenix plate microscope and quantified with the provided software Perkin Elmer Harmony 4.1.
Cells were propagated in DMEM high Glucose (Sigma, #D5796) following standard procedures. 2 days before the cell assay cells are split, counted and seeded in Poly-D-Lysine (PDL) coated 96-wells (Greiner, #655946) plate at a cell density of 12,000 cells per cm^2 (4,000 cells per well) in 100 µl of Assay Medium (Low Glucose medium is used to reduce basal levels of GlcNAcylation) (Park et al. 2014 The Journal of biological chemistry 289:13519). At the day of compound test medium from assay plates was removed and replenished with 90 μl of fresh Assay Medium. 10 μl of compounds at a 10 fold final concentration were added to the wells. Plates were centrifuged shortly before incubation in the cell incubator for 6 hours. DMSO concentration was set to 0.2%. Medium is discarded by applying vacuum. For staining of cells medium was removed and cells washed once with 100 μl D-PBS (Sigma, #D8537). From next step onwards unless other stated assay volume was always 50 μl and incubation was performed without agitation and at room temperature. Cells were fixed in 50 μl of a 4% paraformaldehyde (PFA, Alpha aesar, # 043368) PBS solution for 15 minutes at room temperature. […] Before analysis samples were washed 2 times manually for 5 minutes in ICC base buffer.
Imaging is performed using Perkin Elmer Phenix Opera using a water 20× objective and recording 9 fields per well. Intensity readout at 488 nm is used as a measure of O-GlcNAcylation level of total proteins in wells. To assess potential toxicity of compounds nuclei were counted using the Hoechst staining. IC50-values are calculated using parametric non-linear regression model fitting. As a maximum inhibition Thiamet G at a 200 uM concentration is present on each plate. In addition, a concentration response of Thiamet G is calculated on each plate.

SMILES	ENZYMATIC hOGA; pIC50 [1]	Emax [1]	melting point	Emax (OGA)	EC50 (OGA)	IC50 [1]
Cc1cc(N2CCC3(CCN(C(C)c4cc5ccccc5n4C)C3)C2)nc(C)n1.Cl (stereo not drawn) [Product 27]	5.58	79.4%	166.4 °C	–	–	–
Cc1cc(N2CCC3(CCN(C(C)c4ccc5nccnc5c4)C3)C2)nc(C)n1.Cl (stereo not drawn) [Product 20]	–	97.6%	173.1 °C	14.9%	> 1000 µM	0.117 µM
Cc1cc(N2CCC3(CCN(C(C)c4ccc5sc(C)nc5c4)C3)C2)nc(C)n1 (stereo not drawn) [Product 31]	–	102%	230 °C	23.7%	> 1 µM	0.0339 µM
Cc1cc(N2CCC3(CCN(Cc4ccc5sc(C)nc5c4)C3)C2)nc(C)n1 (stereo not drawn) (as salt: HCl) [Product 32]	–	–	214.8 °C	–	–	–
Cc1cc(N2CCC3(CCN(C(C)c4ccc5scnc5c4)C3)C2)nc(C)n1.Cl (stereo not drawn) [Product 24]	–	99.3%	218.2 °C	38%	> 1 µM	0.049 µM
CC(=O)Nc1ncc(CN2CCC3(CCN(c4cc(C)cnc4C)C3)C2)s1 (stereo not drawn) [Product 50]	–	101%	–	87.8%	0.186 µM	0.0251 µM
CC(=O)Nc1ncc(CN2CC3(CCN(c4cc(C)nc(C)c4)C3)C2)s1 [Product 25]	–	57.9%	214.1 °C	–	–	8.71 µM
Cc1cc(N2CCC3(CCN(Cc4ccc5nccnc5c4)C3)C2)cc(C)n1 (single isomer, unassigned) [Product 4]	–	98.8%	–	23.4%	> 10 µM	0.224 µM
CC(=O)Nc1ncc(CN2CCC3(C2)CN(c2cc(C)nc(C)c2)C3)s1 [Product 23]	–	100%	212.2 °C	–	–	0.302 µM
CC(=O)Nc1ncc(CN2CCC3(CCN(c4cc(C)nc(C(F)(F)F)c4)C3)C2)s1 (stereo not drawn) [Product 28]	–	101%	–	73.4%	0.38 µM	0.0191 µM
CC(=O)Nc1ncc(CN2CCC3(CCN(c4ccnc(C(F)(F)F)c4)C3)C2)s1 (stereo not drawn) [Product 65]	–	101%	–	56.8%	0.724 µM	0.0263 µM
CC(=O)Nc1ncc(CN2CCC3(CCN(c4cc(C)nc(C)c4)C3)C2)s1 (stereo not drawn) [Product 1]	8.22	102%	–	123%	0.141 µM	–
Cc1cc(N2CCC3(CCN(C(C)c4ccc5c(c4)OCCO5)C3)C2)cc(C)n1 (stereo not drawn) [Product 38]	–	101%	–	68.9%	0.389 µM	0.0302 µM
COc1cc(C)cc(N2CCC3(CCN(Cc4cnc(NC(C)=O)s4)C3)C2)n1 (stereo not drawn) [Product 66]	–	99.7%	–	38.5%	> 1 µM	0.0692 µM
Cc1cc(N2CCC3(CCN(Cc4ccc5scnc5c4)C3)C2)nc(C)n1 (stereo not drawn) [Product 21]	–	98.1%	–	23.6%	> 1 µM	0.17 µM
COc1cc(N2CCC3(CCN(Cc4cnc(NC(C)=O)s4)C3)C2)cc(C)n1 (stereo not drawn) [Product 58]	–	102%	–	86.3%	0.0562 µM	0.00589 µM
CC(=O)Nc1ncc(CN2CCC3(CCN(c4ccc(C)nc4C#N)C3)C2)s1 (stereo not drawn) [Product 57]	–	101%	–	56.1%	0.794 µM	0.0263 µM
CC(=O)Nc1ncc(CN2CCC3(CCN(c4cc(C(F)(F)F)cc(C)n4)C3)C2)s1 (stereo not drawn) [Product 62]	–	100%	–	22.2%	> 1 µM	0.0427 µM
CC(=O)Nc1ncc(CN2CCC3(CCN(c4cc(C)ncc4C(F)(F)F)C3)C2)s1 (stereo not drawn) [Product 34]	7.44	102%	–	85.3%	0.148 µM	–
CC(=O)Nc1ncc(CN2CCC3(CCN(c4cc(C)c(C)cn4)C3)C2)s1 (stereo not drawn) [Product 61]	–	102%	–	94.6%	0.117 µM	0.0282 µM
CNc1cncc(N2CCC3(CCN(Cc4cnc(NC(C)=O)s4)C3)C2)n1 (stereo not drawn) [Product 26]	–	101%	–	25.1%	> 1 µM	0.0617 µM
